# Patent US11352354B2, “Substituted penta-fused hexa-heterocyclic compounds, preparation method therefor, drug combination and use thereof” (Xiamen University, priority 2017, dated 2022)
# Values joined by “and” are separate entries in the source; they are usually repeats but may differ in a detail not shown here. Equal entries are not always repeated. “Also recorded” adds a separate entry of the source.
# Legend:
# [1] = tested on: Toledo cells; experiment: Growth inhibition of PIKfyve-mediated tumor cells by Cell Titer Glo method, Toledo; format: cell-based; conditions: Homo sapiens, 120 h, CellTiter-Glo, 5 days of culture, read-out: Inhibition rate % (Toledo)
# Description: (§1) IV. Determination of Growth Inhibition Rates of Compounds Against PIKfyve-Mediated Tumor Cells by Cell Titer Glo Method
# (§2) 1. Cell plating: cells in logarithmic growth phase were counted and inoculated in 384-well plate.
# (§3) 3. […] RLU was measured on PHERAstar Plus.
# [2] = tested on: ST486 cells; experiment: Growth inhibition of PIKfyve-mediated tumor cells by Cell Titer Glo method, ST486; format: cell-based; conditions: Homo sapiens, 120 h, CellTiter-Glo, 5 days of culture, read-out: Inhibition rate % (ST486)
# Description: as §1, §2, §3
# [3] = tested on: MDA-MB-231 cells; experiment: Vacuolation of MDA-MB-231 cells caused by inhibition of compounds on PIKfyve (microscopy); format: cell-based; conditions: for degree of vacuolation, 1 μM, 24 h / degree of vacuolation, 1 μM, 48 h / degree of vacuolation, 10 μM, 24 h / degree of vacuolation, 10 μM, 48 h: MDA-MB-231 cells; on degree of vacuolation, 1 μM, 24 h: key: '+' represents the degree of vacuolation; ++: more '+' indicates more obvious vacuolation; +++: more '+' indicates more obvious vacuolation; ++++: more '+' indicates more obvious vacuolation; '−' represents no vacuolation; on degree of vacuolation, 1 μM, 48 h: key: '+' represents the degree of vacuolation; ++: more '+' indicates more obvious vacuolation; +++: more '+' indicates more obvious vacuolation; ++++: more '+' indicates more obvious vacuolation; '−' represents no vacuolation; on degree of vacuolation, 10 μM, 24 h: key: '+' represents the degree of vacuolation; ++: more '+' indicates more obvious vacuolation; +++: more '+' indicates more obvious vacuolation; ++++: more '+' indicates more obvious vacuolation; '−' represents no vacuolation; on degree of vacuolation, 10 μM, 48 h: key: '+' represents the degree of vacuolation; ++: more '+' indicates more obvious vacuolation; +++: more '+' indicates more obvious vacuolation; ++++: more '+' indicates more obvious vacuolation; '−' represents no vacuolation
# Summary of the method: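 MDA-MB-231 cells in 12-well plates at 37 °C, 5% CO2 were observed by microscopy after 24 and 48 h of culture for cytoplasmic vacuolation as a readout of PIKfyve inhibition. Scoring was semi-quantitative, from − (none) to increasing +.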
# [4] = tested on: JeKo-1 cells; experiment: Tumor cell growth inhibition by MTS method, JeKo-1; format: cell-based; conditions: Homo sapiens, JeKo-1, 120 h, 5 days of culture; for inhibition at 10 µM: read-out: cell growth inhibition rate of compounds at 10 μM
# Description: III. Determination of IC50 Value of Compound for Inhibiting Tumor Cell Growth by MTS Method
# 1. Cell plating: cells in logarithmic growth phase were counted and inoculated in a 96-well plate (20000 cells per well).
# 2. Administrating agent to cell: 10 mM compound mother solution in DMSO was subjected to 3 fold-gradient dilution, to set 8 concentrations, which were then added to various wells, with three replicates for each concentration, and three blank wells (only culture medium) and three negative controls (containing 0.1% DMSO) on each plate.
# 3. […] The OD value at 490 nm was measured with microplate reader OD490. The cell growth inhibition rate was calculated by the following formula: Cell growth inhibition rate %=1−(ODexperimental group−ODblank group)/(ODnegative group−ODblank group)×100%
# The semi-inhibitory concentration IC50 of the compound acting on cell growth was calculated using GradPad Prism 5 software according to the measured cell growth inhibition rate.
# In the following table it lists the IC50 value or the inhibition rates of some compounds at 10 μM against JeKo-1 cells
# [5] = molecular target: PIKfyve protein (Homo sapiens (Human), UniProt Q9Y2I7); experiment: Dissociation equilibrium constant (Kd) of compound and PIKfyve protein, DiscoverX KINOMEscan; format: binding; conditions: eleven 3-fold dilutions, curve fitting
# Sequence of PIKfyve protein (Q9Y2I7 whole entry): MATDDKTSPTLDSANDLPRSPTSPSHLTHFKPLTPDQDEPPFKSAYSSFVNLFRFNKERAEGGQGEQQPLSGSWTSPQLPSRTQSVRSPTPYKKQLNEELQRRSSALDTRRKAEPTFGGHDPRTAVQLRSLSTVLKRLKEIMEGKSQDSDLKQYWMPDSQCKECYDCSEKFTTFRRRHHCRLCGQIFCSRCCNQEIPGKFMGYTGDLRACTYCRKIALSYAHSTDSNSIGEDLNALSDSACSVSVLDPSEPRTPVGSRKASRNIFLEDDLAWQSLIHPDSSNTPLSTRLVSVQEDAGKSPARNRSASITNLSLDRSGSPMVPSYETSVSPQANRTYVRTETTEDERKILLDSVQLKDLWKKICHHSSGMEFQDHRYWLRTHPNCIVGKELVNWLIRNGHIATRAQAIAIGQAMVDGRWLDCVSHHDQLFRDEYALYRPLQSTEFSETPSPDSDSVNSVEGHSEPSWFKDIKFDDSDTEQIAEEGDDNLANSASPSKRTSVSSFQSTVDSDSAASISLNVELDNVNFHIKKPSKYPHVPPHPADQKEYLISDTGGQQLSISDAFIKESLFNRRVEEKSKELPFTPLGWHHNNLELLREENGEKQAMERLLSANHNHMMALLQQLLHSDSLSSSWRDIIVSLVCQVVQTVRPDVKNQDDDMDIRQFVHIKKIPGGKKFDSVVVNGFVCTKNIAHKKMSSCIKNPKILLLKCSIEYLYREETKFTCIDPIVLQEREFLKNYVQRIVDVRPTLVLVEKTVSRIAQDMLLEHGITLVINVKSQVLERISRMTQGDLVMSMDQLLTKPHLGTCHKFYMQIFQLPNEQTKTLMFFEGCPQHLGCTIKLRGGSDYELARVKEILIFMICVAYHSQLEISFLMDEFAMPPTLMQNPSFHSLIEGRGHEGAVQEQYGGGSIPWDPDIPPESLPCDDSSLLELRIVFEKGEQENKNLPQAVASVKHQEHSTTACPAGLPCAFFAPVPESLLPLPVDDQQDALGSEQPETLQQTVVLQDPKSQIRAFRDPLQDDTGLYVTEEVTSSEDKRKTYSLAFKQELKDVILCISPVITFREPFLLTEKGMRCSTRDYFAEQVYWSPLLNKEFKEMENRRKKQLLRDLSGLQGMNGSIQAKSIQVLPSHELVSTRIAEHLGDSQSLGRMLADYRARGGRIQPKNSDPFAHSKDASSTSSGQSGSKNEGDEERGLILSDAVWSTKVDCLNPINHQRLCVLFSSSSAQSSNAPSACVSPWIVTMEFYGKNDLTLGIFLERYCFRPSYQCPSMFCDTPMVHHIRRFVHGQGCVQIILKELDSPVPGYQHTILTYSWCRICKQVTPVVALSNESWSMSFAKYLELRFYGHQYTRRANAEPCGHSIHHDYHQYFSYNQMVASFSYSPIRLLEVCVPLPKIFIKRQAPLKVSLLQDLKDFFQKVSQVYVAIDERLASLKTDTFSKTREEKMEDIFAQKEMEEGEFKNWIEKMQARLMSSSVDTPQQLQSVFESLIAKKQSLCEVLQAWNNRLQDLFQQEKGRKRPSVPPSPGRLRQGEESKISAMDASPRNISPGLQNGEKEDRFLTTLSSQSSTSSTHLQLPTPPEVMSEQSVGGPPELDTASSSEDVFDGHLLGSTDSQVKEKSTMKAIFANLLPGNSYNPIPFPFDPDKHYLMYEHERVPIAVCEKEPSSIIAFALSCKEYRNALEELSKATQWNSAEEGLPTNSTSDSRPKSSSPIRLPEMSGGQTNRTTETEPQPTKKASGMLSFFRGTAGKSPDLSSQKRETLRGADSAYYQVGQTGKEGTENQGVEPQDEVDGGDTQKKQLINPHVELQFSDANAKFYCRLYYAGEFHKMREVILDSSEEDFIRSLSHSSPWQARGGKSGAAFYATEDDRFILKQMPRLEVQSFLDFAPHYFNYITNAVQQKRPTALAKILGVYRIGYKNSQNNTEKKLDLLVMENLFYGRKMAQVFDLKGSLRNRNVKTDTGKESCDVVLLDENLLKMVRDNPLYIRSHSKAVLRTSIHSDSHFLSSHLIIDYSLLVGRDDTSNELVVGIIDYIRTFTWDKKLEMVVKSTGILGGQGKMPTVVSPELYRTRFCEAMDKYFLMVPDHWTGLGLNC
# Description: II. Determination of Dissociation Equilibrium Constant (Kd Value) of Compound and PIKfyve Protein
# The Kd value was determined by DiscoverX's KINOMEscan™ technology according to the following steps:
# 1. Preparation of magnetic beads: biotin-labeled small molecule ligand and avidin-coated magnetic beads were allowed to interact at room temperature for 30 minutes, and then added with excess biotin, followed by washing with a blocking solution (1% BSA, 0.05% Tween 20, 1 mM DTT) to remove unbound ligand.
# 2. Binding reaction: in a 384 plate, 0.02 mL system, DNA-labeled protein, small molecule ligand-bound magnetic beads, and different concentrations of compound to be tested were mixed in a reaction solution (0.17×PBS, 0.05% Tween 20, 6 mM DTT) at room temperature with shaking for 1 hr, to which was added an eluant (1×PBS, 0.05% Tween 20) for elution. Magnetic beads were resuspended by an eluant (1×PBS, 0.05% Tween 20, 0.5 μM non-biotin-labeled small molecule ligand), and shaken at room temperature for 30 min before separating out the eluant.
# 3. Determination of Kd value: the content of protein in the above eluate was determined by qPCR. Eleven 3-fold dilution concentrations were determined for the compound to be tested, with 3 DMSO controls for each concentration, and the Kd value was obtained by curve fitting.
# [6] = tested on: JeKo-1 cells; experiment: Lysosomal dysfunction caused by inhibition of PIKfyve, Western Blot of cathepsins in JeKo-1 cells; format: cell-based; conditions: treatment for 24 hr, FIG. 3
# Excerpt: V. Lysosomal Dysfunction Caused by Inhibition of Compound V-c-17 on PIKfyve (FIG. 3)
# After treatment with V-c-17 for 24 hr, JeKo-1 cells were lysed and tested by Western Blot. […] This was similar to the treatment result with the known PIKfyve inhibitor apilimod.
Structure (SMILES),Kd [5],IC50 [4] [nM],inhibition at 3.3 µM [1] [%],inhibition at 3.3 µM [2] [%],"degree of vacuolation, 1 μM, 24 h [3]","degree of vacuolation, 1 μM, 48 h [3]","degree of vacuolation, 10 μM, 24 h [3]","degree of vacuolation, 10 μM, 48 h [3]",inhibition at 10 µM [4] [%],"vacuolation of MDA-MB-231 cells (FIG. 1) ([3]; 1 μmol/L, time and concentration dependence)",immature cathepsin A and cathepsin D (Western Blot) [6]
Cc1ccc(C(=O)Nc2cc(C(F)(F)F)ccc2Cl)cc1Nc1nc(-c2cccnc2)c2[nH]ccc2n1 [V-c-14],20 nM,,99.6,52.2,++,−,++,++,46.6,,
Cc1ccc(C(=O)Nc2cc(C(F)(F)F)ccc2F)cc1Nc1nc(-c2cccnc2)c2[nH]ccc2n1 [V-c-13],16 nM,,99.7,85.2,++,−,++,++,34.3,,
CS(=O)(=O)Nc1cccc(Nc2nc(-c3cccnc3)c3[nH]ccc3n2)c1 [V-c-1],130 nM,,43.1,35.2,−,−,++,++,,,
O=C(Nc1cccc(C(F)(F)F)c1)c1cccc(Nc2nc(-c3cccnc3)c3[nH]ccc3n2)c1 [V-c-4],33 nM,5940,99.5,76.2,++,++,+++,+++,,,
c1cncc(-c2nc(Nc3cc(N4CCOCC4)cc(N4CCOCC4)c3)nc3cc[nH]c23)c1 [V-c-2],2000 nM,,< 10,18,−,−,−,−,,,
Cc1ccc(C(=O)Nc2cccc(OC(F)(F)F)c2)cc1Nc1nc(-c2cccnc2)c2[nH]ccc2n1 [V-c-8],13 nM,,96.3,51,+++,+++,+++,+++,39,,
"Cc1cccc(/C=N/Nc2cc(N3CCOCC3)nc(OCCc3ccccn3)n2)c1 [apilimod, reference compound]",,,,,,,,,,,"immature cathepsins A and D gradually increase, with good dose dependence"
Cc1ccc(C(=O)Nc2ccc(CN3CCN(C)CC3)c(C(F)(F)F)c2)cc1Nc1nc(-c2cccnc2)c2[nH]ccc2n1 [V-c-11],700 nM,,95.3,96.2,−,−,−,−,,,
Cc1cn(-c2cc(NC(=O)c3ccc(C)c(Nc4nc(-c5cccnc5)c5[nH]ccc5n4)c3)cc(C(F)(F)F)c2)cn1 [V-c-10],3500 nM,,94.8,93,−,−,++,++,,,
Cc1ccc(C(=O)Nc2cccc(NS(C)(=O)=O)c2)cc1Nc1nc(-c2cccnc2)c2[nH]ccc2n1 [V-c-6],16 nM,4950,93.9,69.9,+,++,+++,+++,,,
COc1ccc(C(F)(F)F)cc1NC(=O)c1ccc(C)c(Nc2nc(-c3cccnc3)c3[nH]ccc3n2)c1 [V-c-12],> 30000 nM,2790,95.6,72.3,+++,+++,+++,+++,,,

# Further lines, with some results ahead:
Kd [5],IC50 [4] [nM],Structure (SMILES),inhibition at 3.3 µM [1] [%],inhibition at 3.3 µM [2] [%],"degree of vacuolation, 1 μM, 24 h [3]","degree of vacuolation, 1 μM, 48 h [3]","degree of vacuolation, 10 μM, 24 h [3]","degree of vacuolation, 10 μM, 48 h [3]",inhibition at 10 µM [4] [%],"vacuolation of MDA-MB-231 cells (FIG. 1) ([3]; 1 μmol/L, time and concentration dependence)",immature cathepsin A and cathepsin D (Western Blot) [6]
140 nM,,Cc1ccc(NC(=O)Nc2cccc(C(F)(F)F)c2)cc1Nc1nc(-c2cccnc2)c2[nH]ccc2n1 [V-c-15],99.6,57.5,++,++,++,++,35.1,,
110 nM,6220,Cc1ccc(NC(=S)Nc2cccc(C(F)(F)F)c2)cc1Nc1nc(-c2cccnc2)c2[nH]ccc2n1 [V-c-16],99.5,60.3,++,++,++,++,,,
1000 nM,9410,Cc1ccc(NS(=O)(=O)c2cccc(C(F)(F)F)c2)cc1Nc1nc(-c2cccnc2)c2[nH]ccc2n1 [V-c-20],99.7,33.3,−,++,−,++,,,
21000 nM,1540,Cc1ccc(NC(=O)c2ccc(CN3CCN(C)CC3)c(C(F)(F)F)c2)cc1Nc1nc(-c2cccnc2)c2[nH]ccc2n1 [V-c-22],64.2,57.1,,,,,,,
16 nM and 15 nM,2090,Cc1ccc(NC(=O)c2cccc(C(F)(F)F)c2)cc1Nc1nc(-c2cccnc2)c2[nH]ccc2n1 [V-c-19],97.3,70.6,+++,+++,+++,+++,,"induces vacuolation of MDA-MB-231 cells, with good time dependence; also recorded: induces vacuolation of MDA-MB-231 cells, with good concentration dependence",
33 nM,,Cc1ccc(NC(=O)c2ccc(C(F)(F)F)cc2)cc1Nc1nc(-c2cccnc2)c2[nH]ccc2n1 [V-c-23],94.9,27.2,++,−,++,−,15.8,,
6.4 nM,862,O=C(Nc1cccc(Nc2nc(-c3cccnc3)c3[nH]ccc3n2)c1)c1cccc(C(F)(F)F)c1 [V-c-18],95.2,96,+++,+++,+++,+++,,,
